According to US12466817B2, “Pyridine derivative and application thereof” (Nicoya Therapeutics (Shanghai) Co., Ltd, priority 2020, dated 2025):

Assays:
[1] = target: T1, CCR2 (Homo sapiens, UniProt P41597); assay: CCR2 FLIPR Calcium assay (intracellular calcium signaling); assay type: cell-based; conditions: HEK293 host cells, clone C7; agonist MCP-1; Fluo-4 calcium signal
T1 construct: expressed in transfected cells; host or cells: HEK293, clone C7, passage P6
Method: (§1) The inhibitory effects of the compounds on CCR2 and CCR5 receptors were evaluated by detecting intracellular calcium signaling changes by FLIPR Calcium assay, using the IC50 values of the compounds as indicators.
(§2) 1. Cell lines: The cells were seeded and incubated overnight at 37° C. in a 5% CO2 incubator CCR2/CCR5 density: 1 M (20 k/well)
(§3) 2. Reagent: Fluo-4 Direct, (Invitrogen, Cat #F10471)
(§4) The compound was prepared by dissolving in DMSO to a 10 mM solution, and the compound solution was placed in a nitrogen chamber.
(§5) Preparation of probenecid in FLIPR assay buffer: 1 mL of FLIPR assay buffer was added to 77 mg of probenecid to make a 250 mM solution. The solution was prepared every day to keep fresh.
(§6) 2× (8 μM) Fluo-4 Direct™ loading buffer (10 mL of each)
(§7) 0.2 mL of probenecid was added to each 10 mL of Fluo-Direct. The final measured concentration was 2.5 mM MCP-1 was diluted in FLIPR assay buffer 1:2 for 10 spots, starting at 0.5 μM (eventually to […]). RANTES was diluted in FLIPR assay buffer 1:3 for 10 spots, starting at 0.5 μM (eventually to […]). 20 μL of serially diluted compound buffer was added to each well of the DRC plate.
(§8) The standard compound was diluted in DMSO 1:3 for 11 points, starting at 1 mM.
(§9) The test compound was diluted in DMSO 1:3 for 11 spots, starting at 2 mM. 250 nL of compound solution was transferred to cell plates using Echo (Greiner #781946) c) The cell plate was taken from the incubator and 20 μL of 2× Fluo-4 Direct no wash loading buffer was gently dispensed into a 384-well cell culture plate using a pipette. The volume in the final cell plate was 40 μL […]
(§10) d) Incubation was conducted at 37° C. 5% CO2 for 50 minutes, at room temperature for 10 minutes e) The cell plate was taken from the incubator and placed in the FLIPR. The composite plate and pipette tip box were placed in the FLIPR
(§11) 5) The “Max-Min” was calculated from Read 90 to the maximum allowed. EC80 values for each cell line were calculated using FLIPR
(§12) 6) Agonist reference compound at 5 times EC80 concentration was prepared 2) 10 μL of agonist reference compound at 5 times EC80 concentration was transferred from the composite plate to the cell plate.
(§13) 3) Fluorescence signals were read.
(§14) 4) The “Max-Min” was calculated from Read 90 to the maximum allowed h) Data was analyzed by using Prism, the IC50 values of the compounds were calculated.

[2] = target: T2, CCR5 (Homo sapiens, UniProt P51681); assay: CCR5 FLIPR Calcium assay (intracellular calcium signaling); assay type: cell-based; conditions: HEK293 host cells, clone C13; agonist RANTES; Fluo-4 calcium signal
T2 construct: expressed in transfected cells; host or cells: HEK293, clone C13, passage P4
T2 sequence (P51681 whole entry, species assumed): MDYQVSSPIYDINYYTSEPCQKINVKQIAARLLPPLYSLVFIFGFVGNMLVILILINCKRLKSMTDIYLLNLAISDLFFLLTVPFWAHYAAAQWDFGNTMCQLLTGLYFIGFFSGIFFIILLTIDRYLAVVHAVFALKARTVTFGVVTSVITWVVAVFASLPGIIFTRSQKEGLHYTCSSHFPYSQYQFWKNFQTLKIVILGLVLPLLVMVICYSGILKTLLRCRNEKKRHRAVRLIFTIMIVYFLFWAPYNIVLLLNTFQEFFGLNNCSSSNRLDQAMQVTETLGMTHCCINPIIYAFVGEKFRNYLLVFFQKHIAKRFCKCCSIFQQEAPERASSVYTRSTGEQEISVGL
Method: as §1, §2, §3, §4, §5, §6, §7, §8, §9, §10, §11, §12, §13, §14

[3] = target: T3, CYP1A2 (Homo sapiens, UniProt P05177); assay: Inhibition of human liver microsomal CYP1A2 activity; assay type: in vitro ADME; conditions: human liver microsomes, probe substrate phenacetin, NADPH
T3 construct: from tissue; host or cells: human liver microsomes
T3 sequence (P05177 1-516): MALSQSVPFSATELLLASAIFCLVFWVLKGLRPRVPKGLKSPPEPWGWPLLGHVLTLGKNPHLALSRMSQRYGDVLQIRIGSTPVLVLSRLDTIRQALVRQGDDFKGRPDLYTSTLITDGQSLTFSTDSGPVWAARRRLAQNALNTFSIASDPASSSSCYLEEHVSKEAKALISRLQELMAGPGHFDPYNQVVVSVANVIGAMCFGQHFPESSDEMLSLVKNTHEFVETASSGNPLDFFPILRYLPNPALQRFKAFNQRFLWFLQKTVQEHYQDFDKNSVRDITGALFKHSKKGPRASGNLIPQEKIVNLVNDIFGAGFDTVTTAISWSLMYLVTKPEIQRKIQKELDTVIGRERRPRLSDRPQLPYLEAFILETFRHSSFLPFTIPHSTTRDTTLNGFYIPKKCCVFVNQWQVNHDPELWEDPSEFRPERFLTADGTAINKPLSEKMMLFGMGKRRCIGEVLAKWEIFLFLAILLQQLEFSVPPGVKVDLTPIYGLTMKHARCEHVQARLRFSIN
Method: (§15) A total of five specific probe substrates for the five isozymes of CYP, phenacetin (CYP1A2), diclofenac (CYP2C9), (S′)-mephenytoin (CYP2C19), dextromethorphan ([…]), and midazolam (CYP3A4), were incubated respectively with human liver microsomes and the test compounds, and the reaction was initiated by the addition of reduced nicotinamide adenine dinucleotide phosphate (NADPH), and the samples were treated and the concentrations of the five metabolites produced by the specific substrates, acetaminophen, 4′-hydroxydiclofenac, 4′-hydroxymephenytoin, dextrorphan and 1′-hydroxymidazolam were measured by liquid chromatography tandem mass spectrometry (LC-MS/MS) after the end of the reaction, and the corresponding half maximal inhibitory concentrations (IC50) were calculated.

[4] = target: T4, CYP2C9 (Homo sapiens, UniProt P11712); assay: Inhibition of human liver microsomal CYP2C9 activity; assay type: in vitro ADME; conditions: human liver microsomes, probe substrate diclofenac, NADPH
T4 construct: from tissue; host or cells: human liver microsomes
T4 sequence (P11712 whole entry): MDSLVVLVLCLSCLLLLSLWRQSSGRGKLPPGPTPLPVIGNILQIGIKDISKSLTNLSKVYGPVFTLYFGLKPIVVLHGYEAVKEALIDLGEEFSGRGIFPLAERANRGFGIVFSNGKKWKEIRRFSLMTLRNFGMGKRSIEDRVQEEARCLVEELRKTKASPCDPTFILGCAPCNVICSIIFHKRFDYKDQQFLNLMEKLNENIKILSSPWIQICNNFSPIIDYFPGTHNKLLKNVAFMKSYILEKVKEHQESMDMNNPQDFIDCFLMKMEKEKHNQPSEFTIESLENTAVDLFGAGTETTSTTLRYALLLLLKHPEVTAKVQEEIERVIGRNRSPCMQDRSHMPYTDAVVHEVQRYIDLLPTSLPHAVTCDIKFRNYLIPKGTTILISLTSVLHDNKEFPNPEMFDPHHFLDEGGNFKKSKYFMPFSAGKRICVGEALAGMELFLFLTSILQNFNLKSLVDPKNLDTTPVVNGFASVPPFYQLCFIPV
Method: as §15

[5] = target: T5, CYP2C19 (Homo sapiens, UniProt P33261); assay: Inhibition of human liver microsomal CYP2C19 activity; assay type: in vitro ADME; conditions: human liver microsomes, probe substrate (S)-mephenytoin, NADPH
T5 construct: from tissue; host or cells: human liver microsomes
T5 sequence (P33261 whole entry): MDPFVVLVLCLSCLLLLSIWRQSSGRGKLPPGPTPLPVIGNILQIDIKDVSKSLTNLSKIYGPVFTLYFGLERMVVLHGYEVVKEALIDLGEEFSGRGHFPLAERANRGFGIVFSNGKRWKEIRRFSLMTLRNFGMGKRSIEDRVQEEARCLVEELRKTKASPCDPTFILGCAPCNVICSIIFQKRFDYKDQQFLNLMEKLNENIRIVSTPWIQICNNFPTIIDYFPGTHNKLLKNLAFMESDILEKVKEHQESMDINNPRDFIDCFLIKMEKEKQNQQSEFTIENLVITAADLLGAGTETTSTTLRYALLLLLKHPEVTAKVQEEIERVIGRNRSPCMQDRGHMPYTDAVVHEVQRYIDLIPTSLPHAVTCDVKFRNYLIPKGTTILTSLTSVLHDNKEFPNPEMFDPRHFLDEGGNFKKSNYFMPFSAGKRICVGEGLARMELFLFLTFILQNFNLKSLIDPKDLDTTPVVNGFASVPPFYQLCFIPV
Method: as §15

[6] = target: T6, CYP2D6 (Homo sapiens, UniProt P10635); assay: Inhibition of human liver microsomal CYP2D6 activity; assay type: in vitro ADME; conditions: human liver microsomes, probe substrate dextromethorphan, NADPH
T6 construct: from tissue; host or cells: human liver microsomes
T6 sequence (P10635 whole entry): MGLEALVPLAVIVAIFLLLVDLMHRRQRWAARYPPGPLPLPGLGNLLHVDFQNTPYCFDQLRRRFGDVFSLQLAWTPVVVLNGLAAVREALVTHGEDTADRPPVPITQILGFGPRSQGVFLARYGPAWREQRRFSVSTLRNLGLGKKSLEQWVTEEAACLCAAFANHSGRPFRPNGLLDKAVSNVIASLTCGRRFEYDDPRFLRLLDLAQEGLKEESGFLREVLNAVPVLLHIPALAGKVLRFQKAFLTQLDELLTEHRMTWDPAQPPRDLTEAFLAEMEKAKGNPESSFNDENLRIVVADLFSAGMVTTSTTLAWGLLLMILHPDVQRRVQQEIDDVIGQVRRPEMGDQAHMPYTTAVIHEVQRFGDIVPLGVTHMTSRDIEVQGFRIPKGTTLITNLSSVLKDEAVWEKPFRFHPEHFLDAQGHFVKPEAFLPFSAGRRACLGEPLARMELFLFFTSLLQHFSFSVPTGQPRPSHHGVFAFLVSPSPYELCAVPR
Method: as §15

[7] = target: T7, CYP3A4 (Homo sapiens, UniProt P08684); assay: Inhibition of human liver microsomal CYP3A4 activity; assay type: in vitro ADME; conditions: human liver microsomes, probe substrate midazolam, NADPH
T7 construct: from tissue; host or cells: human liver microsomes
T7 sequence (P08684 whole entry): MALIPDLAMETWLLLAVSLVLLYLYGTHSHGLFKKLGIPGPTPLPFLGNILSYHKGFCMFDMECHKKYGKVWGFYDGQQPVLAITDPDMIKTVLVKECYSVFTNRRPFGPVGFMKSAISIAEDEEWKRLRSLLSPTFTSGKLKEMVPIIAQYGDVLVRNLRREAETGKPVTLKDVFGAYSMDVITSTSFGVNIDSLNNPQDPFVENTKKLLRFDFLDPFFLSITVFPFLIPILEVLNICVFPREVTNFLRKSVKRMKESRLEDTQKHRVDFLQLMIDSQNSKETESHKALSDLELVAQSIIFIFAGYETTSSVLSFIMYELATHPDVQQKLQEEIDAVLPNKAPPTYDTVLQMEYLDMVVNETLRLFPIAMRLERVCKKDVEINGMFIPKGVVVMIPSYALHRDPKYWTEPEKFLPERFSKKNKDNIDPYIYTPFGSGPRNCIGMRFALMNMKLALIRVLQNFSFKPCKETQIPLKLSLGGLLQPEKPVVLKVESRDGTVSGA
Method: as §15

[8] = tested on: human liver microsomal cytochrome P450 isozymes (CYP1A2, CYP2B6, CYP2C8, CYP2C9, CYP2C19, CYP2D6 and CYP3A4); assay: Inhibition of human liver microsomal cytochrome P450 isozymes, overall conclusion; assay type: in vitro ADME; conditions: human liver microsomes
Method: as §15

[9] = Comparative pharmacokinetic test in mice; assay type: in vivo, C57BL/6 male mice
Method: C57BL/6 male mice were used as test animals in the present study, and the plasma drug concentrations of the test compound WX009 and the reference compound in mice by intravenous administration or oral administration were quantified by LC/MS/MS method at different time points respectively to evaluate the pharmacokinetic characteristics of the two test drugs in mice.
A clarified solution of the test compound was injected via tail vein into C57BL/6 mice (overnight fasting, 7-10 weeks old), and the test compound was given by gavage into C57BL/6 mice (overnight fasting, 7-10 weeks old). Approximately 30 μL of blood was collected from the jugular or tail vein at 0.0833, 0.25, 0.5, 1, 2, 4, 6, 8, and 24 hours after administration, and placed in anticoagulation tubes added with EDTA-K2, then centrifuged at 4° C. for 15 minutes at 3000 g to give the plasma. Plasma drug concentration was determined by LC-MS/MS, and relevant pharmacokinetic parameters were calculated using WinNonlin™ Version 6.3 (Pharsight, Mountain View, CA) pharmacokinetic software with a non-compartmental model linear logarithmic trapezoidal method.

T1 sequence (P41597 whole entry, species assumed): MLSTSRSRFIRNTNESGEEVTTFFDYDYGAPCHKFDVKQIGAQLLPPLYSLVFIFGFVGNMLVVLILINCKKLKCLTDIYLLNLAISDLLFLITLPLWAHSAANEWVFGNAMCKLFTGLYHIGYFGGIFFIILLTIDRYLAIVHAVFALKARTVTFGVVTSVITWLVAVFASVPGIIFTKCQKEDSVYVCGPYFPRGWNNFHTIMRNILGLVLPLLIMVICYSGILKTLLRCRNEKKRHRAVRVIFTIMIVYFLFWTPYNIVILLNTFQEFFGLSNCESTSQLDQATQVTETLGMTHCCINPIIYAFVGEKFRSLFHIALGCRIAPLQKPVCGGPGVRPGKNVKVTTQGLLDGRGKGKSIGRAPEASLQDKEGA

IC50 [1] [µM]	IC50 [2] [µM]	IC50 [3] [µM]	IC50 [4] [µM]	IC50 [5] [µM]	IC50 [6] [µM]	IC50 [7] [µM]	Risk of inhibition of human liver microsomal cytochrome P450 isozymes (in words) [8]	half-life ([9]; male, C57BL/6, mouse, plasma, mice, intravenous injection 2 mg/kg) [h]	clearance ([9]; male, C57BL/6, mouse, plasma, mice, intravenous injection 2 mg/kg, read-out: Plasma clearance rate) [mL/min/kg]	bioavailability ([9]; male, C57BL/6, mouse, plasma, mice, oral 10 mg/kg) [%]	Plasma clearance rate compared with the reference compound (in words) ([9]; mice, intravenous)	Oral plasma systemic exposure (AUC0-inf) relative to the reference compound ([9]; mice, oral)	Area under the time-concentration curve (0-inf) ([9]; mice, oral 10 mg/kg) [µM·h]	Peak concentration ([9]; mice, oral 10 mg/kg) [µM]	Peak time ([9]; mice, oral 10 mg/kg) [h]	Pharmacokinetics compared with the reference compound (in words) ([9]; rodent mice)	Structure (SMILES)
0.00196	0.00574	> 50	> 50	> 50	> 50	> 50	no risk of inhibition										CCCCOCCOc1ccc(-c2ccc3c(c2)C=C(C(=O)Nc2ccc([S+]([O-])Cc4c(CC)ccnc4C)cc2)CCCN3CC2CCOCC2)cc1 (single isomer, unassigned) [WX007]
0.0015	0.0084	> 50	22.6	10.1	> 50	> 50	no risk of inhibition										CCCCOCCOc1ccc(-c2ccc3c(c2)C=C(C(=O)Nc2ccc([S+]([O-])Cc4cnc(C)cc4CC)cc2)CCCN3CC2CCOCC2)cc1 (single isomer, unassigned) [WX012]
0.00184	0.00464	> 50	> 50	> 50	> 50	4.6	no risk of inhibition	4.4	0.46	8	slower	approximately six times higher	37.356	5.076	2.0	significantly better	CCCCOCCOc1ccc(-c2ccc3c(c2)C=C(C(=O)Nc2ccc([S+]([O-])Cc4c(CC)ccnc4C)cc2)CCCN3CC2CCCO2)cc1 (single isomer, unassigned) [WX009]
